Test results reported in patent US6303751A, “Human metabotropic glutamate receptor and related DNA compounds” (Eli Lilly and Company, priority 1995, dated 2001).

How the values were obtained:
[1] = tested on: HSmGluR1 receptor (human metabotropic glutamate receptor) in AV12/pRS121 cells; experiment: PI hydrolysis in AV12/pRS121 cells (PI assay); type: cell-based; settings: 10 μM, one hour at 37° C.
Experimental: (§1) PI hydrolysis in clonal cell lines of AV12/pRS121 cells was measured in response to glutamate agonists as a functional assay for metabotropic glutamate receptor activity according to Schoepp, 11 TiPS 508 (1990).
(§2) Twenty-four-well tissue-culture vessels were seeded with approximately 250,000 cells per well in D-MEM (in the absence of glutamic acid) which contained […] and 10% dialyzed fetal calf serum. Four microcuries of ^3 H-myoinositol were then added to each well and the cultures were incubated for 48 hours at 37° C. The wells were then rinsed with serum-free medium which contained 10 mM LiCl and 10 mM myoinositol. Some wells were then exposed to medium with glutamate agonists for one hour at 37° C., and some wells were at the same time exposed to medium without glutamate agonists for one hour at 37° C.
(§3) The reactions were terminated by removing the media and adding 0.5 ml acetone-methanol (1:1). The cells were then incubated at 4° C. for 20 minutes. The acetone-methanol solutions were recovered from the wells and were placed into centrifuge tubes. […]
(§4) Labeled phosphoinositides were eluted from the cartridges with 4 ml of a solution which contained: 0.1 M ammonium formate; 0.1 M formic acid and 5 mM sodium tetraborate. […] Scintillation counting fluid (Ready Solv HP) was added to the vials and the radioactivity was determined in a Beckmann Scintillation Counter.

control AV12 cells = experiment: PI hydrolysis in control AV12 cells (PI assay); type: cell-based; settings: quisqualate 10 μM
Experimental: as §1, §2, §3, §4

`N[C@@H](Cn1oc(=O)[nH]c1=O)C(=O)O` [quisqualate] was tested, and the “increase in PI hydrolysis over the basal level” value [1] was 200 to 300% and the “increase in PI hydrolysis over basal levels” value (control AV12 cells) was “No increase”.
